{
  "source": "patent US20220202799A1",
  "about": "“PHARMACEUTICAL FORMULATIONS CONTAINING P2Y14 ANTAGONISTS” (priority 2019, published 2022)",
  "assay": "Effect of pH on solubility of PPTN in aqueous medium",
  "type": "physicochemical",
  "experimental": "The effect of pH on the solubility of PPTN in an aqueous medium was analyzed. Solutions of PPTN in either water or phosphate buffer at various pH values were incubated with agitation for 24-48 hours at room temperature then filtered to remove precipitates, and the PPTN concentration of the filtered solution was analyzed.",
  "note": "“And” between values parts separate entries of the source, which are not always exact repeats. Identical values can stand only once.",
  "data": [
    {"smiles": "Cl.O=C(O)c1cc(-c2ccc(C3CCNCC3)cc2)c2ccc(-c3ccc(C(F)(F)F)cc3)cc2c1", "note": "[KB-1801.HCl]", "values": [
      {"measurement": "[KB-1801.HCl] by HPLC Analysis (solubility)", "setting": "pH 1.9, 10 mM phosphate buffer, 24-48 h, ~22° C.", "result": "0.0008 mg/mL and 1.6 μM"},
      {"measurement": "[KB-1801.HCl] by HPLC Analysis (solubility)", "setting": "pH 2.8, 10 mM phosphate buffer, 24-48 h, ~22° C.", "result": "0.0255 mg/mL and 50 μM"},
      {"measurement": "[KB-1801.HCl] by HPLC Analysis (solubility)", "setting": "pH 4.8, 0 mM buffer (DIW), >24 h, ~25° C. (from initial sonication)", "result": "~0.1 mg/mL and 195 μM"},
      {"measurement": "[KB-1801.HCl] by HPLC Analysis (solubility)", "setting": "pH 6.6, 10 mM phosphate buffer, 24-48 h, ~22° C.", "result": "0.0001 mg/mL and 0.2 μM"},
      {"measurement": "[KB-1801.HCl] by HPLC Analysis (solubility)", "setting": "pH 8.2, 10 mM phosphate buffer, 24-48 h, ~22° C.", "result": "0.0001 mg/mL and 0.2 μM"}
    ]}
  ]
}
